According to US9999619B2, “Piperidin-4-yl azetidine derivatives as JAK1 inhibitors” (Incyte Corporation, priority 2010, dated 2018):

How the values were obtained:
Format in all cases: biochemical
[1] = biological target: Jak2 (a.a. 828-1132) (Homo sapiens (Human), UniProt O60674); assay: In vitro JAK kinase assay (HTRF, phosphorylation of a biotinylated peptide), JAK2; settings: measured at 1 mM ATP
Procedure, shortened: (§1)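 N-terminal His-tagged catalytic domains, baculovirus-expressed in insect cells, phosphorylated a biotinylated peptide for 1 hr at room temperature. EDTA stop was followed by SA-APC and Eu-Py20 antibody for 40 minutes, with phosphopeptide read by HTRF.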

[2] = biological target: human JAK1 (a.a. 837-1142) (Homo sapiens, UniProt P23458); assay: In vitro JAK kinase assay (HTRF, phosphorylation of a biotinylated peptide), JAK1; settings: measured at 1 mM ATP
Procedure, shortened: as §1

[3] = biological target: human JAK1 (a.a. 837-1142); assay: as above; settings: ratio of JAK2 IC50 to JAK1 IC50, measured at 1 mM ATP
Procedure, shortened: as §1

Chain of Jak2 (a.a. 828-1132) (O60674 828-1132): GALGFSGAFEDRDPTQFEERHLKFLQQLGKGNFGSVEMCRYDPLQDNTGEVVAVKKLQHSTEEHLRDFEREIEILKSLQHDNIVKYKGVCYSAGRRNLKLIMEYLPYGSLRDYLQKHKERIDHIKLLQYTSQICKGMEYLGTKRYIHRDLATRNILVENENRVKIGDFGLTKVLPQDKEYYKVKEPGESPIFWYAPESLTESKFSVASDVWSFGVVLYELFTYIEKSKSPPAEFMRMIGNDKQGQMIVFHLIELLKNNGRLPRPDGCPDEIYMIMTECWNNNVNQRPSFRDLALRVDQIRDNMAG

Structure (SMILES)	IC50 [1]	IC50 [2]	IC50 Ratio JAK2/JAK1 [3]
Cc1ncccc1NC(=O)N1CCC(N2CC(CC#N)(n3cc(-c4ncnc5[nH]ccc45)cn3)C2)CC1 [Example 198, 4-{3-(cyanomethyl)-3-[4-(7H-pyrrolo[2,3-d]pyrimidin-4-yl)-1H-pyrazol-1-yl]azetidin-1-yl}-N-(2-methylpyridin-3-yl)piperidine-1-carboxamide]	10 to 50 nM	≤ 5 nM	4.4
Cc1nc(F)ccc1NC(=O)N1CCC(N2CC(CC#N)(n3cc(-c4ncnc5[nH]ccc45)cn3)C2)CC1 [Example 199, 4-{3-(cyanomethyl)-3-[4-(7H-pyrrolo[2,3-d]pyrimidin-4-yl)-1H-pyrazol-1-yl]azetidin-1-yl}-N-(6-fluoro-2-methylpyridin-3-yl)piperidine-1-carboxamide]	10 to 50 nM	≤ 5 nM	10.0
Cc1ccc(NC(=O)N2CCC(N3CC(CC#N)(n4cc(-c5ncnc6[nH]ccc56)cn4)C3)CC2)c(F)n1 [Example 200, 4-{3-(cyanomethyl)-3-[4-(7H-pyrrolo[2,3-d]pyrimidin-4-yl)-1H-pyrazol-1-yl]azetidin-1-yl}-N-(2-fluoro-6-methylpyridin-3-yl)piperidine-1-carboxamide]	10 to 50 nM	≤ 5 nM	6.7
N#CCC1(n2cc(-c3ncnc4[nH]ccc34)cn2)CN(C2CCN(C(=O)Nc3ncccc3C(F)(F)F)CC2)C1 [Example 201, 4-{3-(cyanomethyl)-3-[4-(7H-pyrrolo[2,3-d]pyrimidin-4-yl)-1H-pyrazol-1-yl]azetidin-1-yl}-N-[3-(trifluoromethyl)pyridin-2-yl]piperidine-1-carboxamide]	10 to 50 nM	5 to 20 nM	3.6
N#CCC1(n2cc(-c3ncnc4[nH]ccc34)cn2)CN(C2CCN(C(=O)Nc3ncccc3F)CC2)C1 [Example 202, 4-{3-(cyanomethyl)-3-[4-(7H-pyrrolo[2,3-d]pyrimidin-4-yl)-1H-pyrazol-1-yl]azetidin-1-yl}-N-(3-fluoropyridin-2-yl)piperidine-1-carboxamide]	10 to 50 nM	≤ 5 nM	6.4
N#CCC1(n2cc(-c3ncnc4[nH]ccc34)cn2)CN(C2CCN(C(=O)Nc3ncc(F)cc3F)CC2)C1 [Example 203, 4-{3-(cyanomethyl)-3-[4-(7H-pyrrolo[2,3-d]pyrimidin-4-yl)-1H-pyrazol-1-yl]azetidin-1-yl}-N-(3,5-difluoropyridin-2-yl)piperidine-1-carboxamide]	50 to 100 nM	5 to 20 nM	8.6
COc1ncccc1NC(=O)N1CCC(N2CC(CC#N)(n3cc(-c4ncnc5[nH]ccc45)cn3)C2)CC1 [Example 204, 4-{3-(cyanomethyl)-3-[4-(7H-pyrrolo[2,3-d]pyrimidin-4-yl)-1H-pyrazol-1-yl]azetidin-1-yl}-N-(2-methoxypyridin-3-yl)piperidine-1-carboxamide]	10 to 50 nM	≤ 5 nM	4.0
Cc1nc(C(F)(F)F)ccc1NC(=O)N1CCC(N2CC(CC#N)(n3cc(-c4ncnc5[nH]ccc45)cn3)C2)CC1 [Example 205, 4-{3-(cyanomethyl)-3-[4-(7H-pyrrolo[2,3-d]pyrimidin-4-yl)-1H-pyrazol-1-yl]azetidin-1-yl}-N-[2-methyl-6-(trifluoromethyl)pyridin-3-yl]piperidine-1-carboxamide]	10 to 50 nM	5 to 20 nM	4.4
COC(=O)c1ccccc1NC(=O)N1CCC(N2CC(CC#N)(n3cc(-c4ncnc5[nH]ccc45)cn3)C2)CC1 [Example 206, methyl 2-{[(4-{3-(cyanomethyl)-3-[4-(7H-pyrrolo[2,3-d]pyrimidin-4-yl)-1H-pyrazol-1-yl]azetidin-1-yl}piperidin-1-yl)carbonyl]amino}benzoate]	≤ 10 nM	≤ 5 nM	1.6
COC(=O)c1cc(F)ccc1NC(=O)N1CCC(N2CC(CC#N)(n3cc(-c4ncnc5[nH]ccc45)cn3)C2)CC1 [Example 207, methyl 2-{[(4-{3-(cyanomethyl)-3-[4-(7H-pyrrolo[2,3-d]pyrimidin-4-yl)-1H-pyrazol-1-yl]azetidin-1-yl}piperidin-1-yl)carbonyl]amino}-5-fluorobenzoate]	≤ 10 nM	≤ 5 nM	2.5
COC(=O)c1ccc(NC(=O)N2CCC(N3CC(CC#N)(n4cc(-c5ncnc6[nH]ccc56)cn4)C3)CC2)c(F)c1 [Example 208, methyl 4-{[(4-{3-(cyanomethyl)-3-[4-(7H-pyrrolo[2,3-d]pyrimidin-4-yl)-1H-pyrazol-1-yl]azetidin-1-yl}piperidin-1-yl)carbonyl]amino}-3-fluorobenzoate]	10 to 50 nM	≤ 5 nM	4.8
CN(C)c1ccc(CN2CCC(N3CC(CC#N)(n4cc(-c5ncnc6[nH]ccc56)cn4)C3)CC2)c(F)c1C#N [Example 209, 3-[(4-{3-(Cyanomethyl)-3-[4-(7H-pyrrolo[2,3-d]pyrimidin-4-yl)-1H-pyrazol-1-yl]azetidin-1-yl}piperidin-1-yl)methyl]-6-(dimethylamino)-2-fluorobenzonitrile]	10 to 50 nM	≤ 5 nM	19.0
N#CCC1(n2cc(-c3ncnc4[nH]ccc34)cn2)CN(C2CCN(Cc3cc(Cl)cc(Cl)c3)CC2)C1 [Example 210, {1-[1-(3,5-dichlorobenzyl)piperidin-4-yl]-3-[4-(7H-pyrrolo[2,3-d]pyrimidin-4-yl)-1H-pyrazol-1-yl]azetidin-3-yl}acetonitrile]	≤ 10 nM	≤ 5 nM	4.3
N#CCC1(n2cc(-c3ncnc4[nH]ccc34)cn2)CN(C2CCN(Cc3cc4ccccc4nc3Cl)CC2)C1 [Example 214, {1-{1-[(2-chloroquinolin-3-yl)methyl]piperidin-4-yl}-3-[4-(7H-pyrrolo[2,3-d]pyrimidin-4-yl)-1H-pyrazol-1-yl]azetidin-3-yl}acetonitrile]	10 to 50 nM	5 to 20 nM	2.5
N#CCC1(n2cc(-c3ncnc4[nH]ccc34)cn2)CN(C2CCN(Cc3ccc(-c4conn4)cc3)CC2)C1 [Example 221, {1-{1-[4-(1,2,3-oxadiazol-4-yl)benzyl]piperidin-4-yl}-3-[4-(7H-pyrrolo[2,3-d]pyrimidin-4-yl)-1H-pyrazol-1-yl]azetidin-3-yl}acetonitrile]	10 to 50 nM	5 to 20 nM	1.3

Continued, values first:

IC50 [1]	IC50 [2]	IC50 Ratio JAK2/JAK1 [3]	Structure (SMILES)
10 to 50 nM	5 to 20 nM	5.0	N#CCC1(n2cc(-c3ncnc4[nH]ccc34)cn2)CN(C2CCN(Cc3cc(C(F)(F)F)ccc3Cl)CC2)C1 [Example 211, {1-{1-[2-chloro-5-(trifluoromethyl)benzyl]piperidin-4-yl}-3-[4-(7H-pyrrolo[2,3-d]pyrimidin-4-yl)-1H-pyrazol-1-yl]azetidin-3-yl}acetonitrile]
50 to 100 nM	5 to 20 nM	7.8	N#CCC1(n2cc(-c3ncnc4[nH]ccc34)cn2)CN(C2CCN(Cc3cccc(C(F)(F)F)c3F)CC2)C1 [Example 212, {1-{-[2-fluoro-3-(trifluoromethyl)benzyl]piperidin-4-yl}-3-[4-(7H-pyrrolo[2,3-d]pyrimidin-4-yl)-1H-pyrazol-1-yl]azetidin-3-yl}acetonitrile]
10 to 50 nM	≤ 5 nM	9.7	N#CCC1(n2cc(-c3ncnc4[nH]ccc34)cn2)CN(C2CCN(Cc3c(F)cccc3C(F)(F)F)CC2)C1 [Example 213, {1-{1-[2-fluoro-6-(trifluoromethyl)benzyl]piperidin-4-yl}-3-[4-(7H-pyrrolo[2,3-d]pyrimidin-4-yl)-1H-pyrazol-1-yl]azetidin-3-yl}acetonitrile]
10 to 50 nM	≤ 5 nM	5.7	N#CCC1(n2cc(-c3ncnc4[nH]ccc34)cn2)CN(C2CCN(Cc3cc(F)cc(F)c3)CC2)C1 [Example 215, {1-[1-(3,5-difluorobenzyl)piperidin-4-yl]-3-[4-(7H-pyrrolo[2,3-d]pyrimidin-4-yl)-1H-pyrazol-1-yl]azetidin-3-yl}acetonitrile]
50 to 100 nM	20 to 30 nM	2.6	COc1cccc(F)c1CN1CCC(N2CC(CC#N)(n3cc(-c4ncnc5[nH]ccc45)cn3)C2)CC1 [Example 218, {1-[1-(2-fluoro-6-methoxybenzyl)piperidin-4-yl]-3-[4-(7H-pyrrolo[2,3-d]pyrimidin-4-yl)-1H-pyrazol-1-yl]azetidin-3-yl}acetonitrile]
10 to 50 nM	5 to 20 nM	2.4	N#CCC1(n2cc(-c3ncnc4[nH]ccc34)cn2)CN(C2CCN(Cc3cccc(Cl)c3Cl)CC2)C1 [Example 219, {1-[1-(2,3-dichlorobenzyl)piperidin-4-yl]-3-[4-(7H-pyrrolo[2,3-d]pyrimidin-4-yl)-1H-pyrazol-1-yl]azetidin-3-yl}acetonitrile]
50 to 100 nM	5 to 20 nM	4.4	N#CCC1(n2cc(-c3ncnc4[nH]ccc34)cn2)CN(C2CCN(Cc3ccc(F)c(C#N)c3)CC2)C1 [Example 220, 5-[(4-{3-(cyanomethyl)-3-[4-(7H-pyrrolo[2,3-d]pyrimidin-4-yl)-1H-pyrazol-1-yl]azetidin-1-yl}piperidin-1-yl)methyl]-2-fluorobenzonitrile]
10 to 50 nM	5 to 20 nM	5.9	N#CCC1(n2cc(-c3ncnc4[nH]ccc34)cn2)CN(C2CCN(Cc3cccc(C#N)c3)CC2)C1 [Example 223, 3-[(4-{3-(cyanomethyl)-3-[4-(7H-pyrrolo[2,3-d]pyrimidin-4-yl)-1H-pyrazol-1-yl]azetidin-1-yl}piperidin-1-yl)methyl]benzonitrile]
